Several values for one entry are separate records, joined by “and”; a condition that tells them apart may be missing. Equal values may be shown once. Read-outs that look alike come from different tables or passages of the source.
Target: beta1 (right auricle of rats, stimulated by isoprenaline) (Rattus norvegicus, UniProt P18090)
Details: for log (x - 1): Van Rossum's table; for Kb: agonist isoprenaline; for type of antagonism towards isoprenaline: simple displacement of curves to the right
[1] = antagonist concentration 10^-8 M
[2] = pA2 (overall), n = 11, all antagonist concentrations
[3] = pA2, single preparation, antagonist concentration 10^-8 M
[4] = antagonist concentration 3 × 10^-8 M
[5] = antagonist concentration 3 × 10^-9 M

beta1 (right auricle of rats, stimulated by isoprenaline), sequence (P18090 whole entry): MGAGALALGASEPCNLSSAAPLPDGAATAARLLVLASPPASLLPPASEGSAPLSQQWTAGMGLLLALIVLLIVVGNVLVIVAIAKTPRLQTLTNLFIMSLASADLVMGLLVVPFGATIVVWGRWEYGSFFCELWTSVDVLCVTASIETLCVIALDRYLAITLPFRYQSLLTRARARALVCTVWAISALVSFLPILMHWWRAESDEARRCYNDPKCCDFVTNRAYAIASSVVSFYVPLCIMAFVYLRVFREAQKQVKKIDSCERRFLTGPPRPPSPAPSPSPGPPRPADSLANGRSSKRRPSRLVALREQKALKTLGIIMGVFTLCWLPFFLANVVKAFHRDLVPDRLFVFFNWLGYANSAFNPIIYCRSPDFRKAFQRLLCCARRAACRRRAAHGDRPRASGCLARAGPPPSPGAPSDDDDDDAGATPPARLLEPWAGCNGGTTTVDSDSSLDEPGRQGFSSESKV

x (displacement of the curve) [1]	log (x - 1) [1]	Kb [2] [nM]	Kb [3]	beta1-adrenolytic activity (pharmacological tests in vitro, in words)	beta1-adrenolytic / beta1-antagonistic activity relative to tertatolol (relative to tertatolol)	type of antagonism towards isoprenaline	x (displacement of the curve) [4]	log (x - 1) [4]	x (displacement of the curve) [5]	log (x - 1) [5]	x (displacement of the curve) (antagonist concentration 10^-9 M)	Kb (pA2, single preparation, antagonist concentration 3 × 10^-8 M)	Kb (pA2, single preparation, antagonist concentration 3 × 10^-9 M)	times more powerful than propanolol (relative to propanolol) [times]	Compound
37.5 mm and 38 mm and 31 mm	1.22 and 1.24 and 0.99	0.575	0.603 nM and 0.575 nM and 1.02 nM	very high beta1 -adrenolytic activity	twice that of tertatolol	competitive type									CC(C)(C)NCC(O)COc1cccc2c1SCCC2O (centres unmarked) [Compound of the formula I, 1-tert.-butylamino-3-(4-hydroxy-8-thiochromanyloxy)-2-propanol]
41 mm and 46 mm and 47 mm	1.35 and 1.52 and 1.55	0.912	0.447 nM and 0.302 nM and 0.282 nM			competitive type	35 mm and 32.5 mm	1.13 and 1.05	25.5 mm and 27 mm and 19.5 mm	0.78 and 0.84 and 0.54	6 mm and 7 mm and 3.5 mm	2.24 nM and 2.69 nM	0.501 nM and 0.437 nM and 0.871 nM	6	CC(C)(C)NCC(O)COc1cccc2c1SCCC2 (centres unmarked) [Tertatolol, 1-tert.-butylamino-3-(8-thiochromanyloxy)-2-propanol]

Reference: patent US4703057A, “Beta-blocking thiochroman derivatives, compositions and method of use therefor” (ADIR Et Compagnie, priority 1985, dated 1987)
